Experimental findings from patent publication US20040043420A1, “Method of identifying conformation-sensitive binding peptides and uses thereof” (priority 2003, published 2004) are described below.

Data set [1] addresses T1, androgen receptor (Homo sapiens, UniProt P10275).
T1 sequence (P10275 1-920): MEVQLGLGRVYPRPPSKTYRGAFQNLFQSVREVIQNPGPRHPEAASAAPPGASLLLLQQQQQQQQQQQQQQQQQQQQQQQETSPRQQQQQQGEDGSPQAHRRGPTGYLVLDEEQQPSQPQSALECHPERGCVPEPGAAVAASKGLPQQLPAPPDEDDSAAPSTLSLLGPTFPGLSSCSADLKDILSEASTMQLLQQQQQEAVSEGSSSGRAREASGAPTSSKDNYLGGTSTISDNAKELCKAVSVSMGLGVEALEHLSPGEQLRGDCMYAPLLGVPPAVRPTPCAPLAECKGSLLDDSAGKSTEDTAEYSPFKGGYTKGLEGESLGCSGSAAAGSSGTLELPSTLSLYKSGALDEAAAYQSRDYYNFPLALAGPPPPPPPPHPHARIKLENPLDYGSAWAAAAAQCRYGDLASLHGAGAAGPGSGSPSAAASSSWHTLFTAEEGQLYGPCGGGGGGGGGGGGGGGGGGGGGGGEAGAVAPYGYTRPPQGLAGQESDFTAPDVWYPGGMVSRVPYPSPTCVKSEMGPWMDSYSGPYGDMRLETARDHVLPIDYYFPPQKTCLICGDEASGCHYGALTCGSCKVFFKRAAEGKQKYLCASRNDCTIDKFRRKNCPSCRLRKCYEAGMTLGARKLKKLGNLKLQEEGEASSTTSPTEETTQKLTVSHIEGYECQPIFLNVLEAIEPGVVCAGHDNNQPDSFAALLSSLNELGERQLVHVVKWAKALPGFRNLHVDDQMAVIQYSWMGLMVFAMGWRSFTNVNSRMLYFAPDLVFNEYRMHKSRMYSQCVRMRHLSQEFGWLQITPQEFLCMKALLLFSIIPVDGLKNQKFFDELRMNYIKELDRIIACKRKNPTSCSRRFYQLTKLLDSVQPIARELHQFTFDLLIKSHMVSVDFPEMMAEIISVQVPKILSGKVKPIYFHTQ
In words: Yeast two-hybrid screening of unbiased X15 peptide library, ligand-induced β-galactosidase activity (FIG. 3, Table 503). On the set-up: expressed in transfected cells; host or cells: Saccharomyces cerevisiae PJ69-4α. In kind it is cell-based. As to conditions: for Yeast Specificity Graph (FIG. 3): CPA: ligand CPA; for Yeast Specificity Graph (FIG. 3): DHT: ligand DHT; for Yeast Specificity Graph (FIG. 3): RU: ligand RU; for Yeast Specificity Graph (FIG. 3): No Lig: no ligand. The source says:
Our library contained predominantly 15 random amino acid residues/peptide in order to identify motifs that might interact with nuclear receptor domains. If ligand is provided to the cells, one can screen for peptides that interact with the ligand-bound receptor. […] Included at the ends of the oligonucleotide were the synthetic restriction endonuclease cleavage sites, EcoRI or Mfe I (5′ end) and Sal I (3′ end). Oligonucleotides were annealed, then cleaved with excess restriction endonuclease and purified on agarose gels. The purified set of oligonucleotides was subcloned as an in-frame carboxy-terminal fusion to a Gal4 DNA binding domain (plasmid vector pMA424 derivative). […] The transformation mix was divided and grown on plates of selective media containing ligand and 25 mM 3-aminotriazole at 30° C. until colonies appeared in 3-7 days. […] Dihydrotestosterone (DHT) and medroxyprogesterone (MPA) were added to the media at 100 nM to identify peptides that interact with the receptor in the presence of ligand. After colonies appeared they were picked and dispersed into individual wells of a 96-well plate containing rich media (YPD).
To determine ligand dependence, two microliter aliquots were removed from the cell suspension, and arrayed and spotted onto each of two rectangular agar plates, one with 100 nM ligand and one without ligand. Growth was monitored daily.
A secondary test of ligand dependent activation was performed using the integrated GAL4-driven lacZ gene. Cell suspensions of the initial positive clones were diluted 20-fold into 20 microliters of rich media in a microplate and grown overnight at 30° C. in the presence and absence of ligand. Microplates were centrifuged for 5 minutes at 3000 rpm in a swinging table top centrifuge to pellet the yeast cells, and the overlying media was aspirated. […] An OD650 density determination was made to normalize the β-galactosidase activity. β-galactosidase activity was monitored following the addition of buffer containing chlorophenol red-1-galactopyranoside (CPRG) (Boehringer Mannheim) substrate at a final concentration of 0.5 mM. […] The maximum slope value of this measurement was normalized to cell density from the initial OD650 value, and the relative ligand dependence of β-galactosidase was determined by comparing the values plus and minus ligand.
In FIG. 3, all of these ligands were tested. The plasmids from true positives were extracted using standard yeast extraction protocols and re-transformed to verify the positive phenotype.

For data set [2], the target named is T2, ER α (UniProt P03372 1-595, limits assumed).
T2 construct: also called estrogen receptor α; ERα-ERE
T2 sequence (looked up): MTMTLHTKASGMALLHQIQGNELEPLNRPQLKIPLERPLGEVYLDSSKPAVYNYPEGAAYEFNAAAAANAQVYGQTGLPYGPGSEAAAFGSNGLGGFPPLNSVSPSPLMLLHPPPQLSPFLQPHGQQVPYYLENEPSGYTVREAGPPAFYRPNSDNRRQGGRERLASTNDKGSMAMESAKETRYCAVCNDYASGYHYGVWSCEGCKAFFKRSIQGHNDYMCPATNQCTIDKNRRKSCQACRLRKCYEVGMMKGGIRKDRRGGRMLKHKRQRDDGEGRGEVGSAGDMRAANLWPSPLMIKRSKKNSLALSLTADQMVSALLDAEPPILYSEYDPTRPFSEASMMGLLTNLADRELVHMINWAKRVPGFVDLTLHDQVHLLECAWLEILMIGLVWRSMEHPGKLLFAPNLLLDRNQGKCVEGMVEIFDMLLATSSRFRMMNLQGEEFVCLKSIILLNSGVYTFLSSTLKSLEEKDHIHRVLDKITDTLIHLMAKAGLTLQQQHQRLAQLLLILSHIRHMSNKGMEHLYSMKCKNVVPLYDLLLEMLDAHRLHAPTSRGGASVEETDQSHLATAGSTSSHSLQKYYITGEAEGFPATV
The data set is described as follows: phage isolated on ERα-ERE; Estradiol.

Data set [3] deals with T3, Gal4 transcriptional activation domain (AD) fused in frame with AR (yeast, UniProt P10275 1-920, limits assumed).
T3 sequence (looked up): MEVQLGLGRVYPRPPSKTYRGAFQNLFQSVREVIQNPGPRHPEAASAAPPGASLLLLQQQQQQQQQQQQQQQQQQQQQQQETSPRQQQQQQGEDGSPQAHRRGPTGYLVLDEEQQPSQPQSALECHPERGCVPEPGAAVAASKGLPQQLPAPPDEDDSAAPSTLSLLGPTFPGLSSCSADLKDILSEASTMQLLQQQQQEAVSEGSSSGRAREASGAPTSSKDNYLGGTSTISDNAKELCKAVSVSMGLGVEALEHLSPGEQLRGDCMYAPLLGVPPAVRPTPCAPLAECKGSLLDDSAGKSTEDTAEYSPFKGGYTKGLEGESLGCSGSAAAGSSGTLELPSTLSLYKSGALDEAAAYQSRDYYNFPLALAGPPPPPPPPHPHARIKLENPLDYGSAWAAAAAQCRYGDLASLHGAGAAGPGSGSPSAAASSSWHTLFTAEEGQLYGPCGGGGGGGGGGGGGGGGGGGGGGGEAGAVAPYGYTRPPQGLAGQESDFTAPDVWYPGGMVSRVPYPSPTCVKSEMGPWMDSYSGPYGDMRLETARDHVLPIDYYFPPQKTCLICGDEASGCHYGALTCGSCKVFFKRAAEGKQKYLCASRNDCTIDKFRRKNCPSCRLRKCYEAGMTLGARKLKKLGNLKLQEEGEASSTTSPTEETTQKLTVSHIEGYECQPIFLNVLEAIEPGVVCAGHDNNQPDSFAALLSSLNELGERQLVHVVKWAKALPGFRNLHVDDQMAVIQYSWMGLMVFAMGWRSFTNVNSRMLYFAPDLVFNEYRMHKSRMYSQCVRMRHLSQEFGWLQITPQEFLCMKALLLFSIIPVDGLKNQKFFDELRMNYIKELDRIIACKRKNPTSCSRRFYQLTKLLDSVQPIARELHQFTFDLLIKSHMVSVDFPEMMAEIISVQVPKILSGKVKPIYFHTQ
In words: cell-based or functional assay.

For “EFPELLAMTRWGRHAALLEPQRLPPPRTTTQPQTEFERMFFFTRPMRTTGLLDLOPS* [B2A7]”, in data set [1], the “Yeast Specificity Graph (FIG. 3): CPA” value was 0.2919, the “Yeast Specificity Graph (FIG. 3): DHT” value is 1.719, the “Yeast Specificity Graph (FIG. 3): RU” value is 0.5 and the “Yeast Specificity Graph (FIG. 3): No Lig” value is 0.3711.
As for EFVNWDAVVPWSELVALLDLOPS [B8A10], in data set [1], the Fold induction came out at 1, the “Yeast Specificity Graph (FIG. 3): CPA” value worked out at 0.3955, the “Yeast Specificity Graph (FIG. 3): DHT” value was 0.6163 and the “Yeast Specificity Graph (FIG. 3): RU” value came to 0.4. For the same molecule, the “Yeast Specificity Graph (FIG. 3): No Lig” value in data set [1] was found to be 0.8753.
In the case of HSHPLPPLLSRLLTGG [E1-4], the binding result in data set [2] was “binds”.

B1: B23H12 (peptide)
chain: MKLLSSIEQACDICRLKKLKCSKEKPKCAKCLKNNWECRYSPKTKRSPLTRAHLTEVESRLERLEQLFLLIFPREDLDMILKMDSLQDIKALLTGLFVQDNVNKDAVTDRLASVETDMPLTLRQHRISATSSSEESSNKGQRQLTVSEFPELLAMTRWGRHAALLEPQRLPPPRTTTQPQTEFERMFFFTRPMRTTGLLDLQPS
On to B1, for which, in data set [3], the “β-galactosidase activity (yeast two-hybrid), MPA” value amounted to 1.31 and the “β-galactosidase activity (yeast two-hybrid), Test” value is 2.44.
Regarding HSHNHHSPWLFRLLGG [E1-1], the binding result in data set [2] is “binds”.
In the case of HSHPHHSHLLYKLMGG [E1-3], the binding result in data set [2] is “binds”.
